Results from patent US12435087B2, “Modulators of DCN-1 and methods of use thereof” (Cellarity, Inc., priority 2023, dated 2025).
Like-named read-outs stand apart in the source and are kept apart here.

Key:
[1] = molecular target: DCN1 (DCUND1) protein PONY domain (Homo sapiens (Human), UniProt Q96GG9); test: TR-FRET assay (binding to DCN-1, displacement of FAM-labeled probe)
Method in brief: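 Compounds read at 1, 5 and 24 h, 0.1% final DMSO, by TR-FRET between terbium-streptavidin on biotinylated DCN1 PONY domain (E. coli) and a FAM-tagged non-covalent inhibitor probe. Two setups used, 5 nM protein with 20 nM labelled probe, or 0.31 nM protein with 100 nM labelled plus 800 nM unlabelled probe; buffer had TritonX and 200 mM NaCl. % activity relative to high (with probe) and low (without probe) controls.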

[2] = molecular target: DCN2 (DCUND2) protein PONY domain (Homo sapiens (Human), UniProt Q6PH85); test: DCN2 TR-FRET assay, measurement of Kinact/KI; assay type: binding
Protocol: A TR-FRET Assay was performed to evaluate the ability of the compounds to bind DCN-2. The time resolved—Forster's resonance energy transfer (TR-FRET) assay was designed following the protocol established in (Scott et al., Nat Chem Biol. 2017 August; 13(8): 850-857). A recombinant form of the DCN2 (DCUND2) protein PONY domain was produced using an E. coli expression system at Viva Biotech China. The DCN2 protein was biotinylated (EZ sulfo-NHS-LC-biotin; Thermofisher) for labeling with 2.5 nM streptavidin terbium (Tb) cryptate in the reaction. The probe was changed to a non-covalent DCN1 inhibitor labeled with carboxyfluorescein (FAM; Zhou el al., Nat Commun. 2017; 8: 1150). Buffer conditions were modified to enhance protein stability by replacing TritonX with 0.05% Tween20 and increasing NaCl to 200 mM. […] The Kinact and KI measurements were taken to allow for continuous reads over 24 hrs. Plates were read every 5 min up to 1 hr, every 15 min up to 5 hr, and every hour up to 10 hours. Kinact and KI were calculated based on the following equations (Krippendorff B F, et al. Mechanism-based inhibition: deriving K(I) and k(inact) directly from time-dependent IC(50) values. J BiomolScreen. 2009; Mons E et al. A Comprehensive Guide for Assessing Covalent Inhibition in Enzymatic Assays Illustrated with Kinetic Simulations. […] The Kinact and KI values could be estimated from the tight curves of the IC50 values over time. [formula]

[3] = 24 hr after treatment with compound, read-out: TR FRET IC50 24 hr

Sequence of DCN2 (DCUND2) protein PONY domain (Q6PH85 60-248): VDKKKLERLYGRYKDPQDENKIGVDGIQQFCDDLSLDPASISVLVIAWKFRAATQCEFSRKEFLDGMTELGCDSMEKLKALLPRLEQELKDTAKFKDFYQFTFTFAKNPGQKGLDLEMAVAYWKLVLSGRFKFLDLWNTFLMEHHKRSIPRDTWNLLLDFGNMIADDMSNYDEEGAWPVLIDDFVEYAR
Sequence of DCN1 (DCUND1) protein PONY domain (Q96GG9 60-248): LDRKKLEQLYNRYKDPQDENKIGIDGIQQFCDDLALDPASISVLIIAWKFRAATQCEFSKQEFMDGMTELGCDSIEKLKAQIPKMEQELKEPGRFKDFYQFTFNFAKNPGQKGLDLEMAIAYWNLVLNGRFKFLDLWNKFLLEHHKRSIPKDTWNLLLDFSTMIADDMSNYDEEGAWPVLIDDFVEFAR

`C/C=C(\CN1CCN(C2COC2)CC1)C(=O)Nc1cccc([C@@H]2c3cnn(-c4ccccc4)c3N(CC)C(=O)[C@H]2NC(=O)c2csc(C(F)(F)F)n2)c1` [Compound I-234, N-((4R,5S)-7-ethyl-4-(3-((E)-2-((4-(oxetan-3-yl)piperazin-1-yl)methyl)but-2-enamido)phenyl)-6-oxo-1-phenyl-4,5,6,7-tetrahydro-1H-pyrazolo[3,4-b]pyridin-5-yl)-2-(trifluoromethyl)thiazole-4-carboxamide] gave an IC50 [1, 3] of no more than 200 nM, an IC50 ([1]; TR FRET IC50 1 hr (nM), 1 hr after treatment with compound) of no more than 200 nM and a Ki [2] greater than 0.5 nM. It also gave a kinact [2] of 0.00167 to 0.00333 s⁻¹ and a kinact/KI [2] of 167000 to 3.33e+06 M⁻¹ s⁻¹.
Work on `C=C(CN1CCOCC1)C(=O)Nc1cccc([C@@H]2c3c(C)nn(-c4ccccc4)c3N(CC)C(=O)[C@H]2NC(=O)c2cccc(C(F)(F)F)c2)c1` [Compound I-2, N-((4R,5S)-7-ethyl-3-methyl-4-(3-(2-(morpholinomethyl)acrylamido)phenyl)-6-oxo-1-phenyl-4,5,6,7-tetrahydro-1H-pyrazolo[3,4-b]pyridin-5-yl)-3-(trifluoromethyl)benzamide] yielded an IC50 [1, 3] of no more than 200 nM, an IC50 ([1]; read-out: TR FRET IC50 1 hr, 1 hr after treatment with compound) of no more than 200 nM and a Ki [2] greater than 0.5 nM. It also gave a kinact [2] of 0.00333 to 0.005 s⁻¹ and a kinact/KI [2] of 3.33e+06 to 8.33e+06 M⁻¹ s⁻¹.
